Tests used:
[1] = target: Cyclin-dependent kinase 4 (Homo sapiens) (UniProt P11802); assay: Inhibition of CDK4 (unknown origin) assessed as residual activity at 1000 nM by KINOMEscan analysis relative to control
[2] = target: LIM domain kinase 1 (Homo sapiens) (UniProt P53667); assay: Inhibition of LIMK1 (unknown origin) assessed as residual activity at 100 nM by KINOMEscan analysis relative to control
[3] = target: Receptor-interacting serine/threonine-protein kinase 2 (Homo sapiens) (UniProt O43353); assay: Inhibition of RIPK2 (unknown origin) assessed as residual activity at 100 nM by KINOMEscan analysis relative to control
Receptor-interacting serine/threonine-protein kinase 2 (Homo sapiens), sequence (O43353 whole entry): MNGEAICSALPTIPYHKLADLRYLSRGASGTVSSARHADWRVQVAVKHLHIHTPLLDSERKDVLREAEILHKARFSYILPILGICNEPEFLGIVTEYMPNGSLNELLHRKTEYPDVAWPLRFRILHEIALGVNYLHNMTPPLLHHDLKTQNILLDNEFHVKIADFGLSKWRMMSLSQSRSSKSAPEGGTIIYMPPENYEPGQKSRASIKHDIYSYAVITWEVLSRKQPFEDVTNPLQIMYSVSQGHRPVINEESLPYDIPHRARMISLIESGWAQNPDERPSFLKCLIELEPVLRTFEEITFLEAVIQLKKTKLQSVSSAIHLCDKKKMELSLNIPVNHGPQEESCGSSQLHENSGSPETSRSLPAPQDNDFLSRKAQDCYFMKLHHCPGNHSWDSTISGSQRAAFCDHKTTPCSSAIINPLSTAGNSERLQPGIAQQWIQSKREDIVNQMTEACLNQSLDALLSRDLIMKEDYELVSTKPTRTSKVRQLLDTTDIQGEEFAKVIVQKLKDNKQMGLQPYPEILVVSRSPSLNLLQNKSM

[4] = target: Tyrosine-protein kinase CSK (Homo sapiens) (UniProt P41240); assay: Inhibition of CSK (unknown origin) assessed as residual activity at 100 nM by KINOMEscan analysis relative to control
Tyrosine-protein kinase CSK (Homo sapiens), sequence (P41240 2-450 limits assumed): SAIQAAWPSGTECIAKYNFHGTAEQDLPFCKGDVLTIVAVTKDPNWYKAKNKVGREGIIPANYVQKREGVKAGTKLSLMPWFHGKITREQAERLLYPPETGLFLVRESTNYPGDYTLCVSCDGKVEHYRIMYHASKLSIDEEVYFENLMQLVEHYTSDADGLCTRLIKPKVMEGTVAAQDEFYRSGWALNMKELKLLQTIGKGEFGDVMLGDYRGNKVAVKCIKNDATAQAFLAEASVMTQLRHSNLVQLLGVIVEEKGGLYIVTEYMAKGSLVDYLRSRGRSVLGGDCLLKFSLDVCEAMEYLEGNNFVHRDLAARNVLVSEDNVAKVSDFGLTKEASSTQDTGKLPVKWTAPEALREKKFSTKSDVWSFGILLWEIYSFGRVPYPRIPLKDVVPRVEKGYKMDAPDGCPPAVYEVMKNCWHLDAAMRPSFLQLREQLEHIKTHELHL

[5] = target: Ribosomal protein S6 kinase alpha-2 (Homo sapiens) (UniProt Q15349); assay: Inhibition of C-terminal RSK3 […] domain 2 (unknown origin) assessed as residual activity at 100 nM by KINOMEscan analysis relative to control
Ribosomal protein S6 kinase alpha-2 (Homo sapiens), sequence (Q15349 whole entry): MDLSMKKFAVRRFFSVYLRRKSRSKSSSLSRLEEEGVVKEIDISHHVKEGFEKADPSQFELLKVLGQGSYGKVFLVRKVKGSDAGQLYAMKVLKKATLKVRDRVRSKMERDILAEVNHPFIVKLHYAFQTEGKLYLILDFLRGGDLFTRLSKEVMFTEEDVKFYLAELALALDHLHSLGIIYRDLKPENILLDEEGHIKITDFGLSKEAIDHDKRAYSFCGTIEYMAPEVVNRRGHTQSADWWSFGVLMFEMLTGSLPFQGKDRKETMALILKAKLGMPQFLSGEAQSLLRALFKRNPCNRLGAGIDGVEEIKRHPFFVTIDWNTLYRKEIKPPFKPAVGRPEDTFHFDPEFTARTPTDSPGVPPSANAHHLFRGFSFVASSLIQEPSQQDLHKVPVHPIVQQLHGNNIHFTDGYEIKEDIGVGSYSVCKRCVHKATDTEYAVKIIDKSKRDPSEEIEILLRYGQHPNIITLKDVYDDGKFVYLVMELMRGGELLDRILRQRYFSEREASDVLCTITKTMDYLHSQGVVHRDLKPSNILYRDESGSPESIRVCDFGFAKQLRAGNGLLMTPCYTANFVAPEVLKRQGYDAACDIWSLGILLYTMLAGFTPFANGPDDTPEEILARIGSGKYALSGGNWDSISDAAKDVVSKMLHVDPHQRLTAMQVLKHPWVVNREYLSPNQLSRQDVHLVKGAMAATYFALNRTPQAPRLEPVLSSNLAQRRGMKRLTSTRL

[6] = test system: ALK tyrosine kinase receptor (Homo sapiens), Q9UM73 [L1196M]; assay: Inhibition of ALK L1196M mutant (unknown origin) assessed as residual activity at 100 nM by KINOMEscan analysis relative to control
ALK tyrosine kinase receptor (Homo sapiens), Q9UM73 [L1196M], sequence (Q9UM73 whole entry L1196M, looked up): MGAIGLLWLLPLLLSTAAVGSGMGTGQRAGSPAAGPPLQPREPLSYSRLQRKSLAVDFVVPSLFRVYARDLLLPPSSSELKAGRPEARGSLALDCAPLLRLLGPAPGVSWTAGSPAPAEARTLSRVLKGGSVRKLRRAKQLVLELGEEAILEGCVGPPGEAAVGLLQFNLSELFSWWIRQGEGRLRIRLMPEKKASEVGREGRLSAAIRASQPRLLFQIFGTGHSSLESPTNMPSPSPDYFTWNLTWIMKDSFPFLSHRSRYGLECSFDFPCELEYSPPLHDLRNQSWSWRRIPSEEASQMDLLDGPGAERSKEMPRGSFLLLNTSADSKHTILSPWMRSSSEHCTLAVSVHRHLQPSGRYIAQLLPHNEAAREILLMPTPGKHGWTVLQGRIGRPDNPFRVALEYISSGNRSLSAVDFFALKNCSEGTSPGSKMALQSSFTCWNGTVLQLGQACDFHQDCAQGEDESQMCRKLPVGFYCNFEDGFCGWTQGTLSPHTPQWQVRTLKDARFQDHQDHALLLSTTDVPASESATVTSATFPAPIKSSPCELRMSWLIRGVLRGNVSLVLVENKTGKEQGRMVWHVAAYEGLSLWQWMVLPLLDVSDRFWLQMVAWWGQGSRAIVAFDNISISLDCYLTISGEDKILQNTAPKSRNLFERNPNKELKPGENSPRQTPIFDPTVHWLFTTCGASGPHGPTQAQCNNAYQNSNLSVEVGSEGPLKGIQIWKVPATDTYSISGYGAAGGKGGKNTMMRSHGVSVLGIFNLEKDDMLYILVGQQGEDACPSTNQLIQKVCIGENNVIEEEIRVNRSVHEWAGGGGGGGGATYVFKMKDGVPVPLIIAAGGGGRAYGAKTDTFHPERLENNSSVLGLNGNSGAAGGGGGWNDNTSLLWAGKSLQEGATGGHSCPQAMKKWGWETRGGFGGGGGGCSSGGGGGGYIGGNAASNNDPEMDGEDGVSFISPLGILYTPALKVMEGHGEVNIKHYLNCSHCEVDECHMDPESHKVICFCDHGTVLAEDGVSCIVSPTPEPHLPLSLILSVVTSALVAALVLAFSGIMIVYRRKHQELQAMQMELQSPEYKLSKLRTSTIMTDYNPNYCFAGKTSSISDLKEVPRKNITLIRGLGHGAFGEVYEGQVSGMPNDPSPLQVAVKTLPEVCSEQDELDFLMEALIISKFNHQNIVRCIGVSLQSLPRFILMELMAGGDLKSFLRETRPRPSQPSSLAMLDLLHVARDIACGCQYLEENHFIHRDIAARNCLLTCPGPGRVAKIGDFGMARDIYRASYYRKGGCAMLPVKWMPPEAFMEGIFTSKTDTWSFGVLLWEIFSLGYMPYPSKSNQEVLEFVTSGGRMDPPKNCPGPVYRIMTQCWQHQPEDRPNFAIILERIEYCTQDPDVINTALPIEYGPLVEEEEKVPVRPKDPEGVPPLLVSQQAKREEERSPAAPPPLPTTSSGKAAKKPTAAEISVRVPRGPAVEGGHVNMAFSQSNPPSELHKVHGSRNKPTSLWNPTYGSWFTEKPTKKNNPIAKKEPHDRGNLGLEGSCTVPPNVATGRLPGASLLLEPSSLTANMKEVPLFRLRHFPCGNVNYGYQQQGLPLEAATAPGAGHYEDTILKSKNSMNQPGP

[7] = target: T1, Serine/threonine-protein kinase Nek5 (Homo sapiens) (UniProt Q6P3R8); assay: Inhibition of NEK5 (unknown origin) assessed as residual activity at 100 nM by KINOMEscan analysis relative to control
T1 sequence (whole entry): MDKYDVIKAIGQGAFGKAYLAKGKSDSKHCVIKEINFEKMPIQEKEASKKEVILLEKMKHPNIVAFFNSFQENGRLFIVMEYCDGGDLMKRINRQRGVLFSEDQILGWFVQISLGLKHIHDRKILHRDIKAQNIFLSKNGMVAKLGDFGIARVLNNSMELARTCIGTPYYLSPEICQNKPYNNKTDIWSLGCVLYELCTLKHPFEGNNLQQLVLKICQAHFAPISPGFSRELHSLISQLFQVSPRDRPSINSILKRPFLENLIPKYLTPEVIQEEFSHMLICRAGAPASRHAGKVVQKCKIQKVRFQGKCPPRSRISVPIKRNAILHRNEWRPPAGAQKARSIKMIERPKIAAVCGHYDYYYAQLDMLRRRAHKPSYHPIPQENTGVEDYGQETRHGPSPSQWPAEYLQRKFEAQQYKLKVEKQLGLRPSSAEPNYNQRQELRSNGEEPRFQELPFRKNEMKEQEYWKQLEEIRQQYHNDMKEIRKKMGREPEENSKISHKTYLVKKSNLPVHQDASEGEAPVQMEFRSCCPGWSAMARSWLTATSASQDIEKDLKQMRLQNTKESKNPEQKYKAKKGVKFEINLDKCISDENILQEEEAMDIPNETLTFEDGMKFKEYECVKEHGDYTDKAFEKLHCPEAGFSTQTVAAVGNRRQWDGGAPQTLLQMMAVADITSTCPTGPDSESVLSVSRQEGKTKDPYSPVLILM

[8] = target: Ribosomal protein S6 kinase alpha-3 (Homo sapiens) (UniProt P51812); assay: Inhibition of N-terminal RSK2 kinetic domain 1 (unknown origin) assessed as residual activity at 100 nM by KINOMEscan analysis relative to control
Ribosomal protein S6 kinase alpha-3 (Homo sapiens), sequence (P51812 whole entry, the tested form may be a part): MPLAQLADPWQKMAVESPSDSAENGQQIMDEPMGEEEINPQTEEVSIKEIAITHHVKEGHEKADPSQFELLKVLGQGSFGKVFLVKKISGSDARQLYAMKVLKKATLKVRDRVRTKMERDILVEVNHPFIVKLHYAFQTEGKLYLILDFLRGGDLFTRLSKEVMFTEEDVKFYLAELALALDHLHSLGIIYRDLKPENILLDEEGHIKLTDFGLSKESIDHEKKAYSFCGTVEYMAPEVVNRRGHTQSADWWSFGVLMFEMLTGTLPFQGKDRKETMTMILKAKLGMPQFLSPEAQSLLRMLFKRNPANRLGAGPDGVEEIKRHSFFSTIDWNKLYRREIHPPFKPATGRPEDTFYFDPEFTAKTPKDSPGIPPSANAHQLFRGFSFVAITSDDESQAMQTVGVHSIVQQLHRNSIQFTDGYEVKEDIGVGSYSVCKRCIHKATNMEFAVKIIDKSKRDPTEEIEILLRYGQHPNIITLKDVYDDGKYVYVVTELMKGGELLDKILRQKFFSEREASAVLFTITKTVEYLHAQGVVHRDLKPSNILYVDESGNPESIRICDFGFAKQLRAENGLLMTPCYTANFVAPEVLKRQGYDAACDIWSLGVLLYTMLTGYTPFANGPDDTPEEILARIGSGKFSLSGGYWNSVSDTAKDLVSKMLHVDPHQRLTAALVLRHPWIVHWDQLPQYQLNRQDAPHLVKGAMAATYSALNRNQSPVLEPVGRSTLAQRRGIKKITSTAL

[9] = target: STE20-like serine/threonine-protein kinase (Homo sapiens) (UniProt Q9H2G2); assay: Inhibition of SLK (unknown origin) assessed as residual activity at 100 nM by KINOMEscan analysis relative to control
[10] = target: Phosphatidylinositol 4-kinase beta (Homo sapiens) (UniProt Q9UBF8); assay: Inhibition of PIK4CB (unknown origin) assessed as residual activity at 100 nM by KINOMEscan analysis relative to control
Phosphatidylinositol 4-kinase beta (Homo sapiens), sequence (Q9UBF8 2-816 limits assumed): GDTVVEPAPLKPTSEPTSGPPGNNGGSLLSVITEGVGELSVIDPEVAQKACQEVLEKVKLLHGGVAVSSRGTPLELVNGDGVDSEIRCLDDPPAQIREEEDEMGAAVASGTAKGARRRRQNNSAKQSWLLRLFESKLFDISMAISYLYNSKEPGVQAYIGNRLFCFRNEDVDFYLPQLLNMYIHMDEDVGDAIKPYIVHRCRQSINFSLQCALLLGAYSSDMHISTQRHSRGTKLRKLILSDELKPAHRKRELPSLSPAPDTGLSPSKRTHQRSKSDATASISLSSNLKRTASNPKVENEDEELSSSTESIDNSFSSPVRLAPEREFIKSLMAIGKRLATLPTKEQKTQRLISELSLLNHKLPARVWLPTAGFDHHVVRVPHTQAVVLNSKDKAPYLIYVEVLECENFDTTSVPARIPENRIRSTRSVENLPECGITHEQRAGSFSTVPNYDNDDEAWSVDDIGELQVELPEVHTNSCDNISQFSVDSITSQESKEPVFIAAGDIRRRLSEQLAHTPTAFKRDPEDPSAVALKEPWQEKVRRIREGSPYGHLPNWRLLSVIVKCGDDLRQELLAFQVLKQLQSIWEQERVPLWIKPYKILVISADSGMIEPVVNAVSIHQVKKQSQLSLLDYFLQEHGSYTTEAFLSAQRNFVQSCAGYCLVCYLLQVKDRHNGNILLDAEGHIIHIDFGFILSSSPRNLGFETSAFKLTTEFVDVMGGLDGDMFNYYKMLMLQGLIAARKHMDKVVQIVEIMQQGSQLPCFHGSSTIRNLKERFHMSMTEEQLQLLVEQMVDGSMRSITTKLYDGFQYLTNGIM

[11] = target: T2, Serine/threonine-protein kinase TAO2 (Homo sapiens) (UniProt Q9UL54); assay: Inhibition of TAOK2 (unknown origin) assessed as residual activity at 100 nM by KINOMEscan analysis relative to control
T2 sequence (whole entry): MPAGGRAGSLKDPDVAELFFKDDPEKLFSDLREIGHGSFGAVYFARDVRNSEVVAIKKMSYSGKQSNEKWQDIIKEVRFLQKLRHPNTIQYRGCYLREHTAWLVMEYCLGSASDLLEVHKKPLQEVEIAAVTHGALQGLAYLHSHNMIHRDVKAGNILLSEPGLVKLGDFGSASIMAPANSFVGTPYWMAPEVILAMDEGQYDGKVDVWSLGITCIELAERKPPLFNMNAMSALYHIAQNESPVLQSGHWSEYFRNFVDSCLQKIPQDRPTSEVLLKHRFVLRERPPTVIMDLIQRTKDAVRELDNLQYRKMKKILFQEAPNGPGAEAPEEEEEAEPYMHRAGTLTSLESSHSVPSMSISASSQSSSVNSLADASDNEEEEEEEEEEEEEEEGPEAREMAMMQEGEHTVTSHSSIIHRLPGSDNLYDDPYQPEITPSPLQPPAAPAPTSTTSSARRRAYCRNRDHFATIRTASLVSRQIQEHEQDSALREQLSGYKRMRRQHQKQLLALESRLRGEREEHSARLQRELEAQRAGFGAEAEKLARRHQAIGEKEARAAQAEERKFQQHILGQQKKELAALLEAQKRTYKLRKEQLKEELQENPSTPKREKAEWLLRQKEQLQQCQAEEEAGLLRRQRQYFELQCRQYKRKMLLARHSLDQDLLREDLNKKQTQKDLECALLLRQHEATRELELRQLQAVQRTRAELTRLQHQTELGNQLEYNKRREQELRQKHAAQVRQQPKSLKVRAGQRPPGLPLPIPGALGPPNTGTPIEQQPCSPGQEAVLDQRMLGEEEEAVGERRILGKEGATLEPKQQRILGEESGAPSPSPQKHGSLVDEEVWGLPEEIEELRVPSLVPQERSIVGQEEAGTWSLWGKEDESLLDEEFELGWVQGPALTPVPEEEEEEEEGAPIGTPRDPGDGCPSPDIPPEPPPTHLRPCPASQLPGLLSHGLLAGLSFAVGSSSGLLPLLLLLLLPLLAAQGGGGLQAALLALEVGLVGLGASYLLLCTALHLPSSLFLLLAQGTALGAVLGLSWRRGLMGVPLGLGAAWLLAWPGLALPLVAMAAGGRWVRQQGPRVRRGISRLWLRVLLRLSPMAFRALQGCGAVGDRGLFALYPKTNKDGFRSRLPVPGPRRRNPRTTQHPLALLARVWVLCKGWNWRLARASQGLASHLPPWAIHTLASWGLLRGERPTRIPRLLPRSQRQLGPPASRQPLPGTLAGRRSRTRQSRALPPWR

Q: With `COc1cc2nc(C)nc(N[C@H](C)c3cccc(-c4cn[nH]c4)c3)c2cc1OC` as the molecule, how does the Activity [1] read?
A: 92%

Q: With `COc1cc2ncnc(N[C@H](C)c3cccc4ccccc34)c2cc1OC` as the molecule, how does the Activity [2] read?
A: 81%

Q: What about the Activity [3] of the same molecule?
A: 84%

Q: What about the Activity [4] of the same molecule?
A: 90%

Q: What about the Activity [5] of the same molecule?
A: 91%

Q: What about the Activity [6] of the same molecule?
A: 66%

Q: And the Activity [7]?
A: 31%

Q: What about the Activity [8] of the same molecule?
A: 70%

Q: What about the Activity [9] of the same molecule?
A: 100%

Q: What about the Activity [10] of the same molecule?
A: 83%

Q: And the Activity [11]?
A: 94%
